Measured values: patent US20240199618A1, “NOVEL N-ACYL-[3-SUBSTITUTED]-[8-SUBSTITUTED]-5,6-DIHYDRO-[1,2,4]TRIAZOLO[4,3-a]PYRAZINES AS SELECTIVE NK-3 RECEPTOR ANTAGONISTS, PHARMACEUTICAL COMPOSITION, METHODS FOR USE IN NK-3 RECEPTOR-MEDIATED DISORDERS” (Ogeda SA, priority 2013, published 2024)
Read-outs that look alike come from different tables or passages of the source.

Assays:
human NK-3 receptor [1] = molecular target: T1, human NK-3 receptor (Homo sapiens (Human), UniProt P29371); experiment: 3H-SB222200 binding competition assay with human NK-3 receptor
Experimental: The affinity of compounds of the invention for the human NK-3 receptor was determined by measuring the ability of compounds of the invention to competitively and reversibly displace a well-characterized NK-3 radioligand in a concentration-dependent manner.
^3H-SB222200 Binding Competition Assay with Human NK-3 Receptor
Membranes were prepared from Chinese hamster ovary recombinant cells stably expressing the human NK-3 receptor. The membranes were incubated with 5 nM ^3H-SB222200 (ARC) in a HEPES 25 mM/NaCl 0.1M/CaCl2 1 mM/MgCl2 5 mM/BSA 0.5%/Saponin 10 μg/ml buffer at pH 7.4 and various concentrations of compounds of the invention. The amount of ^3H-SB222200 bound to the receptor was determined after filtration by the quantification of membrane associated radioactivity using the TopCount-NXT reader (Packard).

human NK-3 receptor [2] = molecular target: T1, human NK-3 receptor; experiment: Aequorin functional assay with human NK-3 receptor (antagonist testing vs NKA); format: cell-based; details: CHO cells, NKA at EC80 (3 nM); read-out: Functional assay: Aequorin assay with human NK-3 receptor hNK-3-AEQ (antagonist IC50)
Experimental: Aequorin Assay with Human NK-3 Receptor
Changes in intracellular calcium levels are a recognized indicator of G protein-coupled receptor activity. The efficacy of compounds of the invention to inhibit NKA-mediated NK-3 receptor activation was assessed by an in vitro Aequorin functional assay. Chinese Hamster Ovary recombinant cells expressing the human NK-3 receptor and a construct that encodes the photoprotein apoaequorin were used for this assay. In the presence of the cofactor coelenterazine, apoaequorin emits a measurable luminescence that is proportional to the amount of intracellular (cytoplasmic) free calcium.
The antagonist activity of compounds of the invention is measured following pre-incubation (3 minutes) of the compound (at various concentrations) with the cells, followed by addition of the reference agonist (NKA) at a final concentration equivalent to the EC80 (3 nM) and recording of emitted light (FDSS 6000 Hamamatsu) over the subsequent 90-second period. The intensity of the emitted light is integrated using the reader software. Compound antagonist activity is measured based on the concentration-dependent inhibition of the luminescence response to the addition of Neurokinin A.

human NK-2 receptor = human NK-2 receptor (Homo sapiens (Human), UniProt P21452); experiment: Selectivity assay: [125I]-Neurokinin A binding, human NK-2 receptor; details: 0.1 nM [125I]-Neurokinin A, CHO membranes; read-out: hNK-2 (Ki)
Experimental: The affinity of compounds of the invention for the NK-2 receptor was evaluated in CHO recombinant cells which express the human NK-2 receptor. Membrane suspensions were prepared from these cells. […] Binding assays were performed in a 25 mM HEPES/1 mM CaCl2)/5 mM MgCl2/0.5% BSA/10 μg/ml saponin, at pH 7.4. […] The radioactivity retained on the filters was measured by using the TopCount-NXT reader (Packard).

human NK-1 receptor = human NK-1 receptor (Homo sapiens (Human), UniProt P25103); experiment: Selectivity assay: [3H] substance P binding, human NK-1 receptor; details: 2 nM [3H] substance P, CHO membranes; read-out: hNK-1 (Ki)
Experimental: Selectivity of the compounds of the invention was determined over the other human NK receptors, namely NK-1 and NK-2 receptors.
The affinity of compounds of the invention for the NK-1 receptor was evaluated in CHO recombinant cells which express the human NK-1 receptor. Membrane suspensions were prepared from these cells. The following radioligand: [^3H] substance P (PerkinElmer Cat #NET111520) was used in this assay. Binding assays were performed in a 50 mM Tris/5 mM MnCl2/150 mM NaCl/0.1% BSA at pH 7.4. Binding assays consisted of 25 μl of membrane suspension (approximately 5 μg of protein/well in a 96 well plate), 50 μl of compound or reference ligand (Substance P) at increasing concentrations (diluted in assay buffer) and 2 nM [^3H] substance P. The plate was incubated 60 min at 25° C. in a water bath and then filtered over GF/C filters (Perkin Elmer, 6005174, presoaked in 0.5% PEI for 2 h at room temperature) with a Filtration unit (Perkin Elmer). The radioactivity retained on the filters was measured by using the TopCount-NXT reader (Packard).

plasma protein = experiment: Determination of plasma protein binding (equilibrium dialysis, RED); format: in vitro ADME; details: 4 hours at 37° C.
Description: Determination of plasma protein binding The pharmacokinetic and pharmacodynamic properties of chemicals/drugs are largely a function of the reversible binding of chemicals to plasma or serum proteins. […] Consequently, the extent of the plasma protein binding (PPB) of a compound influences its action as well as its distribution and elimination.
The determination of plasma protein binding (PPB) of a compound is enabled by equilibrium dialysis, an accepted and standard method for reliable estimation of the non-bound drug fraction in plasma. RED (Rapid Equilibrium Dialysis) device insert is made of two side-by-side chambers separated by an O-ring-sealed vertical cylinder of dialysis membrane (MWCO ˜8,000). […] After 4 hours incubation at 37° C. under shaking, an aliquot is removed from each chamber and analyzed by a LC-MS/MS procedure enables the determination of both free and bound drug.
The “free fraction” may be calculated as 100%−% rPPB (i.e. the complementary percentage of that disclosed in Table 4, corresponding to the drug concentration that is unbound and therefore available to engage biological target and elicit pharmacological activity).

[3] = Table 2, 5 nM 3H-SB222200, CHO membranes, read-out: Competitive binding assay with human NK-3 receptor hNK-3 (Ki)
[4] = Table 3 (selectivity table), read-out: hNK-3 (Ki)

T1 sequence (P29371 whole entry): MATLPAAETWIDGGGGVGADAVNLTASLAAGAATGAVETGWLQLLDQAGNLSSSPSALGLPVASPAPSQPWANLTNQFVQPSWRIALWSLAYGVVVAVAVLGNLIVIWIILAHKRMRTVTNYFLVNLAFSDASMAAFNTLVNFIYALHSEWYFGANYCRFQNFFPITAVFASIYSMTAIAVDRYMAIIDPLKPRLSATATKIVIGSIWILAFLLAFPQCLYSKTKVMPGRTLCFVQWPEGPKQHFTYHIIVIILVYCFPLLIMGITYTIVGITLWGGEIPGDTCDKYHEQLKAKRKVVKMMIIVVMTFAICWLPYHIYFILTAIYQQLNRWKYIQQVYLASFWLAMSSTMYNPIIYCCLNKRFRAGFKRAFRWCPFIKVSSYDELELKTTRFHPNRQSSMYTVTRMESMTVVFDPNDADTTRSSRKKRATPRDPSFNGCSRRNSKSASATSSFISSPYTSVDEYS
human NK-1 receptor, sequence (P25103 whole entry): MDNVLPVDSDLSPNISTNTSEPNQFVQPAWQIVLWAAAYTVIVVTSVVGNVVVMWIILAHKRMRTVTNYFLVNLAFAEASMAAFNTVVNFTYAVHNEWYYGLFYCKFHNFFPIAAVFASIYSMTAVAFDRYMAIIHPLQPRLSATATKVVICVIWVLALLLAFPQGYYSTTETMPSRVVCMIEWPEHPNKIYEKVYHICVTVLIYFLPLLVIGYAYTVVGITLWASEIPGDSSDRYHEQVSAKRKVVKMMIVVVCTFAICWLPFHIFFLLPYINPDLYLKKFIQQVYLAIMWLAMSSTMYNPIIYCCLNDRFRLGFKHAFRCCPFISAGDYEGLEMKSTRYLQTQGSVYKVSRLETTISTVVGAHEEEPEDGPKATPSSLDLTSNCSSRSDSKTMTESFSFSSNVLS
human NK-2 receptor, sequence (P21452 whole entry): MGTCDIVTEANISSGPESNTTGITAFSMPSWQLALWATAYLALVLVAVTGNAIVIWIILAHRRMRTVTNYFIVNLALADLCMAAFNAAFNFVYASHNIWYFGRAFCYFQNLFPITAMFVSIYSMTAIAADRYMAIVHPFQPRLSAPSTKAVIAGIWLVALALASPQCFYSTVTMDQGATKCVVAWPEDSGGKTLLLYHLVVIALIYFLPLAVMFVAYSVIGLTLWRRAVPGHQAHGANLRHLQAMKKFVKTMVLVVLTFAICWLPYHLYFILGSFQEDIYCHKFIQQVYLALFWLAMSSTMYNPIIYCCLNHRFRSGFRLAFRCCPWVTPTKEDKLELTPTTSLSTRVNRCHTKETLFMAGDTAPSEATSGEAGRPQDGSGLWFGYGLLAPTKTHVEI

SMILES | Ki (human NK-3 receptor [1]; [3]) [nM] | Ki (human NK-3 receptor [1]; [4]) [nM] | IC50 (human NK-3 receptor [2]) [nM] | Ki (human NK-2 receptor) [nM] | Ki (human NK-1 receptor) [nM] | Exposure (% rPPB), bound drug fraction to plasma protein (plasma protein) [%]
CC(F)c1noc(-c2nnc3n2CCN(C(=O)c2ccc(F)cc2)[C@@H]3C)n1 (single isomer, unassigned) [Compound 45-1] | 100 | 100 | 285 | > 30000 | > 30000 | 27
CC(F)c1noc(-c2nnc3n2CCN(C(=O)c2ccc(F)cc2)[C@@H]3C)n1 (single isomer, unassigned) [Compound 45-2] | 83 | 83 | 148 | > 30000 | > 30000 | 33
Cc1nsc(-c2nnc3n2CCN(C(=O)c2ccc(C(F)(F)F)cc2)[C@@H]3C)n1 [Compound 21, (R)-(8-methyl-3-(3-methyl-1,2,4-thiadiazol-5-yl)-5,6-dihydro-[1,2,4]triazolo[4,3-a]pyrazin-7(8H)-yl)(4-(trifluoromethyl)phenyl)methanone] | 63 | 63 | 150 | > 30000 | > 30000 | 38
CC[C@@H]1c2nnc(-c3nc(C)ns3)n2CCN1C(=O)c1ccc(F)cc1 [Compound 22, (R)-(8-ethyl-3-(3-methyl-1,2,4-thiadiazol-5-yl)-5,6-dihydro-[1,2,4]triazolo[4,3-a]pyrazin-7(8H)-yl)(4-fluorophenyl)methanone] | 69 | 69 | 130 | > 30000 | > 30000 | 27
CCC[C@@H]1c2nnc(-c3nc(C)ns3)n2CCN1C(=O)c1ccc(F)cc1 [Compound 24, (R)-(4-fluorophenyl)(3-(3-methyl-1,2,4-thiadiazol-5-yl)-8-propyl-5,6-dihydro-[1,2,4]triazolo[4,3-a]pyrazin-7(8H)-yl)methanone] | 78 | 78 | 120 | > 30000 | > 30000 | 48
COc1cc(C(=O)N2CCn3c(-c4nc(C)ns4)nnc3[C@H]2C)ccc1F [Compound 25, (R)-(4-fluoro-3-methoxyphenyl)(8-methyl-3-(3-methyl-1,2,4-thiadiazol-5-yl)-5,6-dihydro-[1,2,4]triazolo[4,3-a]pyrazin-7(8H)-yl)methanone] | 85 | 85 | 110 | > 30000 | > 30000 | 19

Stronger by Ki (human NK-3 receptor [1]; [3]), values ahead:

Ki (human NK-3 receptor [1]; [3]) [nM] | Ki (human NK-3 receptor [1]; [4]) [nM] | IC50 (human NK-3 receptor [2]) [nM] | Ki (human NK-2 receptor) [nM] | Ki (human NK-1 receptor) [nM] | Exposure (% rPPB), bound drug fraction to plasma protein (plasma protein) [%] | SMILES
24 | 24 | 30 | 25000 | 22100 | 53 | Cc1nsc(-c2nnc3n2CCN(C(=O)c2ccc(F)c(Cl)c2)[C@@H]3C)n1 [Compound 6, (R)-(3-chloro-4-fluorophenyl)(8-methyl-3-(3-methyl-1,2,4-thiadiazol-5-yl)-5,6-dihydro-[1,2,4]triazolo[4,3-a]pyrazin-7(8H)-yl)methanone]
26 | 26 | 30 | 36000 | > 30000 | 26 | Cc1nsc(-c2nnc3n2CCN(C(=O)c2cc(F)c(F)c(F)c2)[C@@H]3C)n1 [Compound 7, (R)-(8-methyl-3-(3-methyl-1,2,4-thiadiazol-5-yl)-5,6-dihydro-[1,2,4]triazolo[4,3-a]pyrazin-7(8H)-yl)(3,4,5-trifluorophenyl)methanone]
31 | 31 | 56 | 49000 | > 30000 | 30 | Cc1nsc(-c2nnc3n2CCN(C(=O)c2cc(F)c(F)c(F)c2F)[C@@H]3C)n1 [Compound 10, (R)-(8-methyl-3-(3-methyl-1,2,4-thiadiazol-5-yl)-5,6-dihydro-[1,2,4]triazolo[4,3-a]pyrazin-7(8H)-yl)(2,3,4,5-tetrafluorophenyl)methanone]
45 | 45 | 50 | > 30000 | > 30000 | 20 | Cc1nsc(-c2nnc3n2CCN(C(=O)c2cccc(F)c2)[C@@H]3C)n1 [Compound 15, (R)-(3-fluorophenyl)(8-methyl-3-(3-methyl-1,2,4-thiadiazol-5-yl)-5,6-dihydro-[1,2,4]triazolo[4,3-a]pyrazin-7(8H)-yl)methanone]
49 | 49 | 71 | 37000 | > 30000 | 36 | Cc1nsc(-c2nnc3n2CCN(C(=O)c2cccc(Cl)c2)[C@@H]3C)n1 [Compound 16, (R)-(3-chlorophenyl)(8-methyl-3-(3-methyl-1,2,4-thiadiazol-5-yl)-5,6-dihydro-[1,2,4]triazolo[4,3-a]pyrazin-7(8H)-yl)methanone]
51 | 51 | 50 | > 30000 | > 30000 | 24 | Cc1nsc(-c2nnc3n2CCN(C(=O)c2cc(F)cc(F)c2)[C@@H]3C)n1 [Compound 17, (R)-(3,5-difluorophenyl)(8-methyl-3-(3-methyl-1,2,4-thiadiazol-5-yl)-5,6-dihydro-[1,2,4]triazolo[4,3-a]pyrazin-7(8H)-yl)methanone]
54 | 54 | 87 | > 30000 | > 30000 | 23 | Cc1nsc(-c2nnc3n2CCN(C(=O)c2ccc(F)cc2F)[C@@H]3C)n1 [Compound 18, (R)-(2,4-difluorophenyl)(8-methyl-3-(3-methyl-1,2,4-thiadiazol-5-yl)-5,6-dihydro-[1,2,4]triazolo[4,3-a]pyrazin-7(8H)-yl)methanone]
56 | 56 | 110 | > 30000 | > 30000 | 51 | Cc1ccc(C(=O)N2CCn3c(-c4nc(C)ns4)nnc3[C@H]2C)cc1 [Compound 19, (R)-(8-methyl-3-(3-methyl-1,2,4-thiadiazol-5-yl)-5,6-dihydro-[1,2,4]triazolo[4,3-a]pyrazin-7(8H)-yl)(p-tolyl)methanone]
